{"source": "paper PMC10983001", "about": "“Development of Cytotoxic GW7604-Zeise’s Salt Conjugates as Multitarget Compounds with Selectivity for Estrogen Receptor- Positive Tumor Cells” (Journal of Medicinal Chemistry, 2024)", "key": {"nuclei of MCF-7 cells": {"system": "nuclei of MCF-7 cells", "experiment": "Nuclear uptake (platinum by HR-CS-AAS), MCF-7", "format": "cell-based, human", "conditions": "MCF-7, 20 μM, 24 h; pmol complex/mg protein", "description": "Fluorescence in the nuclei is not detectable. Therefore, the nuclei were analyzed for their platinum content using HR-CS-AAS.[25]\nAfter thawing of the cell/nuclei pellets, they were resuspended in ultrapure water (Siemens LaboStar, Günzburg, Germany; 300 μL) and lyzed with a sonotrode (Bandelin Sonoplus, Berlin, Germany; parameters 20 s, 9 cycles, 80% power). Graphite furnace (GF) AAS was used to quantify the lysates concerning their content of platinum (λ = 265.9450 nm). For this purpose, a contrAA 700 High-Resolution-Continous Source AAS (Analytik Jena, Jena, Germany) was employed, while atomization took place by electrothermal heating of graphite tubes with an inserted platform (Analytik Jena, Jena, Germany). […] The spectrometer was monitored with the ASpect CS software, version 2.3.1.0 (Analytik Jena, Jena, Germany). For all runs, the mean integrated absorbance was determined after three injections of each standard or sample. […] Each cell/nuclei lysate was quantified concerning its protein content following the method of Bradford[71] in order to express the uptake as the amount of compound (pmol) in the lysate relative to its protein mass (mg). […] All standards and lysates were measured in duplicate. After incubating for 5 min at rt, the absorbance (λ = 595 nm) was read on a microplate reader (Tecan Safire 2, Männedorf, Switzerland). […]"}, "[1]": {"experiment": "Stability in organic solutions (1H NMR)", "format": "physicochemical", "conditions": "for amount of free ligand: DMF-d7, rt", "description": "Furthermore, it needs to be clarified whether organic solvent molecules are capable of ligand exchange reactions at the PtCl3 unit and form corresponding reaction/degradation products of the GW7604-Alk-PtCl3 complexes. Therefore, ^1H NMR experiments were performed with noncoordinating [e.g., acetone-d6, methanol-d4] and coordinating [e.g., acetonitrile-d3 , DMF-d7, dimethyl sulfoxide-d6 (DMSO-d6)] solvents. It should further be assessed whether the solvents are suitable for preparing stock solutions for structural characterization or in vitro testing.\nThe solutions (concentrations of 4.5–5.0 mM) were stored in NMR tubes at room temperature (rt) after being purged with argon."}}}
{"smiles": "CCC(=C(c1ccc(O)cc1)c1ccc(C=CC(=O)OCCC[CH]2[CH2][Pt-]2([Cl])([Cl])[Cl])cc1)c1ccccc1.[K+]", "note": "(mixture of isomers) [GW7604-Pent-PtCl3, Potassium trichlorido[η^2-(pent-4-en-1-yl (E)-3-(4-((E/Z)-1-(4-hydroxyphenyl)-2-phenylbut-1-en-1-yl)phenyl)acrylate)]platinate(II)]", "values": [{"measurement": "platinum content in the nuclei", "setting": "nuclei of MCF-7 cells", "value": 145, "unit": "pmol/mg"}, {"measurement": "amount of free ligand", "setting": "[1]; 9 days", "value": "about 33%"}, {"measurement": "amount of free ligand", "setting": "[1]; 14 days", "value": "about 40%"}, {"measurement": "stability in DMSO-d6", "setting": "[1]; DMSO-d6, measured after 5 min / immediately after dissolution", "value": "only signals of the free GW7604-Pent ligand"}, {"measurement": "time to complete degradation of the complex", "setting": "[1]; acetonitrile-d3, rt", "value": "≤ 23", "unit": "days"}, {"measurement": "complex that released the free ligand", "setting": "[1]; acetonitrile-d3, rt, 4 days", "value": "about 25%"}, {"measurement": "complex that released the free ligand", "setting": "[1]; acetonitrile-d3, rt, 9 days", "value": "about 35%"}]}
